{"source": "patent US20260240869A1", "about": "“ANTIPSEUDOMONAL FUSIDIC ACID COMPOUNDS” (priority 2022, published 2026)", "key": {"[1]": {"system": "P. aeruginosa PA14", "assay": "MIC, P. aeruginosa PA14", "format": "cell-based, Pseudomonas aeruginosa", "conditions": "Pseudomonas aeruginosa; Reference strain PA14 (Table 11); read-out: MIC", "protocol": "(§1) Antimicrobial Susceptibility Tests. Susceptibility testing was performed in biological triplicate, using the microdilution broth method as outlined by the Clinical and Laboratory Standards Institute. Bacteria were cultured with cation-adjusted Meuller-Hinton broth (Sigma-Aldrich; catalogue number: 90922) or Luria-Bertani (LB) broth (Lennox) in round-bottom 96-well plates (Corning; catalogue number: 3788)."}, "[2]": {"system": "clinical isolates of P. aeruginosa", "assay": "MIC against panel of clinical isolates of P. aeruginosa", "format": "cell-based, Pseudomonas aeruginosa", "conditions": "for MIC: Pseudomonas aeruginosa, read-out: MIC", "protocol": "as §1"}, "[3]": {"system": "E. coli MG1655", "assay": "MIC, E. coli MG1655", "format": "cell-based", "conditions": "Escherichia coli, MG1655", "outline": "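Susceptibility is determined by the CLSI microdilution broth method. Cultures grow in cation-adjusted Mueller-Hinton or LB (Lennox) medium, with each test run in biological triplicate.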"}, "[4]": {"system": "S. aureus ATCC 29213", "assay": "MIC, S. aureus ATCC 29213", "format": "cell-based", "conditions": "Staphylococcus aureus, ATCC29213; Table 9; read-out: MIC S. aureus ATCC 29213", "protocol": "as §1"}}, "note": "Like-named read-outs stand apart in the source and are kept apart here."}
{"smiles": "CC(=O)O[C@H]1C[C@@]2(C)[C@@H](C[C@@H](O)[C@H]3[C@@]4(C)CC[C@@H](O)[C@@H](C)[C@@H]4CC[C@@]32C)/C1=C(\\CCC=C(C)C)C(=O)O", "note": "[FA, Fusidic acid]", "values": [{"measurement": "MIC", "setting": "[1]", "result": "> 1020", "unit": "µg/mL"}, {"measurement": "activity (MIC) against a panel of 75 clinical isolates of P. aeruginosa", "setting": "[2]", "result": "essentially no antibacterial activity"}, {"measurement": "MIC", "setting": "[2]; AR Bank Isolate # 0054", "result": "> 1020", "unit": "µg/mL"}, {"measurement": "MIC", "setting": "[2]; AR Bank Isolate # 0064", "result": "> 1020", "unit": "µg/mL"}, {"measurement": "MIC", "setting": "[2]; AR Bank Isolate # 0090", "result": "> 1020", "unit": "µg/mL"}, {"measurement": "MIC", "setting": "[2]; AR Bank Isolate # 0092", "result": "> 1020", "unit": "µg/mL"}, {"measurement": "MIC", "setting": "[2]; AR Bank Isolate # 0095", "result": "> 1020", "unit": "µg/mL"}, {"measurement": "MIC", "setting": "[2]; AR Bank Isolate # 0100", "result": "> 1020", "unit": "µg/mL"}, {"measurement": "MIC", "setting": "[2]; AR Bank Isolate # 0103", "result": "> 1020", "unit": "µg/mL"}, {"measurement": "MIC", "setting": "[2]; AR Bank Isolate # 0110", "result": "> 1020", "unit": "µg/mL"}, {"measurement": "MIC", "setting": "[2]; AR Bank Isolate # 0229", "result": "> 1020", "unit": "µg/mL"}, {"measurement": "MIC", "setting": "[2]; AR Bank Isolate # 0230", "result": "> 1020", "unit": "µg/mL"}, {"measurement": "MIC", "setting": "[2]; AR Bank Isolate # 0231", "result": "> 1020", "unit": "µg/mL"}, {"measurement": "MIC", "setting": "[2]; AR Bank Isolate # 0232", "result": "> 1020", "unit": "µg/mL"}, {"measurement": "MIC", "setting": "[2]; AR Bank Isolate # 0233", "result": "> 1020", "unit": "µg/mL"}, {"measurement": "MIC", "setting": "[2]; AR Bank Isolate # 0234", "result": 1020, "unit": "µg/mL"}, {"measurement": "MIC", "setting": "[2]; AR Bank Isolate # 0235", "result": "> 1020", "unit": "µg/mL"}, {"measurement": "MIC", "setting": "[2]; AR Bank Isolate # 0236", "result": "> 1020", "unit": "µg/mL"}, {"measurement": "MIC", "setting": "[2]; AR Bank Isolate # 0237", "result": "> 1020", "unit": "µg/mL"}, {"measurement": "MIC", "setting": "[2]; AR Bank Isolate # 0239", "result": "> 1020", "unit": "µg/mL"}, {"measurement": "MIC", "setting": "[2]; AR Bank Isolate # 0240", "result": "> 1020", "unit": "µg/mL"}, {"measurement": "MIC", "setting": "[2]; AR Bank Isolate # 0241", "result": "> 1020", "unit": "µg/mL"}, {"measurement": "MIC", "setting": "[2]; AR Bank Isolate # 0242", "result": "> 1020", "unit": "µg/mL"}, {"measurement": "MIC", "setting": "[2]; AR Bank Isolate # 0243", "result": "> 1020", "unit": "µg/mL"}, {"measurement": "MIC", "setting": "[2]; AR Bank Isolate # 0244", "result": "> 1020", "unit": "µg/mL"}, {"measurement": "MIC", "setting": "[2]; AR Bank Isolate # 0245", "result": "> 1020", "unit": "µg/mL"}, {"measurement": "MIC", "setting": "[2]; AR Bank Isolate # 0246", "result": 1020, "unit": "µg/mL"}, {"measurement": "MIC", "setting": "[2]; AR Bank Isolate # 0248", "result": "> 1020", "unit": "µg/mL"}, {"measurement": "MIC", "setting": "[2]; AR Bank Isolate # 0250", "result": "> 1020", "unit": "µg/mL"}, {"measurement": "MIC", "setting": "[2]; AR Bank Isolate # 0252", "result": "> 1020", "unit": "µg/mL"}, {"measurement": "MIC", "setting": "[2]; AR Bank Isolate # 0254", "result": "> 1020", "unit": "µg/mL"}, {"measurement": "MIC", "setting": "[2]; AR Bank Isolate # 0265", "result": "> 1020", "unit": "µg/mL"}, {"measurement": "MIC", "setting": "[2]; AR Bank Isolate # 0763", "result": "> 1020", "unit": "µg/mL"}, {"measurement": "MIC", "setting": "[2]; AR Bank Isolate # 0767", "result": "> 1020", "unit": "µg/mL"}, {"measurement": "MIC", "setting": "[2]; AR Bank Isolate # 0769", "result": "> 1020", "unit": "µg/mL"}, {"measurement": "MIC", "setting": "[2]; AR Bank Isolate # 0772", "result": "> 1020", "unit": "µg/mL"}, {"measurement": "MIC", "setting": "[2]; Carle Isolate ID # Cl-02", "result": 1020, "unit": "µg/mL"}, {"measurement": "MIC", "setting": "[2]; Carle Isolate ID # Cl-03", "result": 1020, "unit": "µg/mL"}, {"measurement": "MIC", "setting": "[2]; Carle Isolate ID # Cl-04", "result": "> 1020", "unit": "µg/mL"}, {"measurement": "MIC", "setting": "[2]; Carle Isolate ID # Cl-05", "result": "> 1020", "unit": "µg/mL"}, {"measurement": "MIC", "setting": "[2]; Carle Isolate ID # Cl-06", "result": "> 1020", "unit": "µg/mL"}, {"measurement": "MIC", "setting": "[2]; Carle Isolate ID # Cl-07", "result": "> 1020", "unit": "µg/mL"}, {"measurement": "MIC", "setting": "[2]; Carle Isolate ID # Cl-08", "result": "> 1020", "unit": "µg/mL"}, {"measurement": "MIC", "setting": "[2]; Carle Isolate ID # Cl-09", "result": "> 1020", "unit": "µg/mL"}, {"measurement": "MIC", "setting": "[2]; Carle Isolate ID # Cl-10", "result": "> 1020", "unit": "µg/mL"}, {"measurement": "MIC", "setting": "[2]; Carle Isolate ID # Cl-11", "result": "> 1020", "unit": "µg/mL"}, {"measurement": "MIC", "setting": "[2]; Carle Isolate ID # Cl-12", "result": "> 1020", "unit": "µg/mL"}, {"measurement": "MIC", "setting": "[2]; Carle Isolate ID # Cl-13", "result": "> 1020", "unit": "µg/mL"}, {"measurement": "MIC", "setting": "[2]; Carle Isolate ID # Cl-14", "result": "> 1020", "unit": "µg/mL"}, {"measurement": "MIC", "setting": "[2]; Carle Isolate ID # Cl-15", "result": "> 1020", "unit": "µg/mL"}, {"measurement": "MIC", "setting": "[2]; Carle Isolate ID # Cl-19", "result": "> 1020", "unit": "µg/mL"}, {"measurement": "MIC", "setting": "[2]; Cubist Strain ID # 996", "result": "> 1020", "unit": "µg/mL"}, {"measurement": "MIC", "setting": "[2]; Cubist Strain ID # 997", "result": "> 1020", "unit": "µg/mL"}, {"measurement": "MIC", "setting": "[2]; Cubist Strain ID # 998", "result": 1020, "unit": "µg/mL"}, {"measurement": "MIC", "setting": "[2]; Cubist Strain ID # 999", "result": "> 1020", "unit": "µg/mL"}, {"measurement": "MIC", "setting": "[2]; Cubist Strain ID # 1000", "result": "> 1020", "unit": "µg/mL"}, {"measurement": "MIC", "setting": "[2]; Cubist Strain ID # 1001", "result": "> 1020", "unit": "µg/mL"}, {"measurement": "MIC", "setting": "[2]; Cubist Strain ID # 1174", "result": "> 1020", "unit": "µg/mL"}, {"measurement": "MIC", "setting": "[2]; Cubist Strain ID # 1175", "result": "> 1020", "unit": "µg/mL"}, {"measurement": "MIC", "setting": "[2]; Cubist Strain ID # 1176", "result": "> 1020", "unit": "µg/mL"}, {"measurement": "MIC", "setting": "[2]; Cubist Strain ID # 1280", "result": "> 1020", "unit": "µg/mL"}, {"measurement": "MIC", "setting": "[2]; Cubist Strain ID # 1282", "result": "> 1020", "unit": "µg/mL"}, {"measurement": "MIC", "setting": "[2]; Cubist Strain ID # 1283", "result": "> 1020", "unit": "µg/mL"}, {"measurement": "MIC", "setting": "[2]; Cubist Strain ID # 1284", "result": "> 1020", "unit": "µg/mL"}, {"measurement": "MIC", "setting": "[2]; Cubist Strain ID # 1586", "result": "> 1020", "unit": "µg/mL"}, {"measurement": "MIC", "setting": "[2]; Cubist Strain ID # 1590", "result": "> 1020", "unit": "µg/mL"}, {"measurement": "MIC", "setting": "[2]; Cubist Strain ID # 1591", "result": "> 1020", "unit": "µg/mL"}, {"measurement": "MIC", "setting": "[2]; Cubist Strain ID # 1592", "result": "> 1020", "unit": "µg/mL"}, {"measurement": "MIC", "setting": "[2]; Cubist Strain ID # 1905", "result": "> 1020", "unit": "µg/mL"}, {"measurement": "MIC", "setting": "[2]; Cubist Strain ID # 1906", "result": "> 1020", "unit": "µg/mL"}, {"measurement": "MIC", "setting": "[2]; Cubist Strain ID # 2242", "result": "> 1020", "unit": "µg/mL"}, {"measurement": "MIC", "setting": "[2]; Cubist Strain ID # 2243", "result": "> 1020", "unit": "µg/mL"}, {"measurement": "MIC", "setting": "[2]; Cubist Strain ID # 2244", "result": "> 1020", "unit": "µg/mL"}, {"measurement": "MIC", "setting": "[2]; Other strains (ref.) 1113", "result": "> 1020", "unit": "µg/mL"}, {"measurement": "MIC", "setting": "[2]; Other strains (ref.) 1727", "result": "> 1020", "unit": "µg/mL"}, {"measurement": "MIC", "setting": "[3]; CLSI (Table 8), read-out: E. coli MG1655 MIC", "result": 512, "unit": "µg/mL"}, {"measurement": "MIC", "setting": "[3]; Table 9, read-out: MIC E. coli MG1655", "result": 512, "unit": "µg/mL"}, {"measurement": "MIC", "setting": "[4]", "result": 0.125, "unit": "µg/mL"}]}
